Type in all cases: biochemical
The target of experiment [1] is T1, catalytic domain of human gelatinase-A (MMP-9) (Homo sapiens, UniProt P14780).
T1 construct: Determination of the Enzymatic Activity of the Catalytic Domain of Human Gelatinase-A (MMP-9); purchased Roche, Mannheim
The experiment can be described thus: Enzymatic activity of the catalytic domain of human gelatinase (MMP-9), fluorogenic substrate. The following applies: for MMP9:MMP1, selectivity of inhibition of MMP-9 in relation to MMP-1: ratio of the IC50 values of Table 4. As for the experimental part:
Determination of the Enzymatic Activity of the Catalytic Domain of Human Gelatinase-A (MMP-9)
Activation of the proenzyme:
2 parts by volume of proenzyme were incubated with 1 part by volume of APMA solution at 37° C. for 4 hours. The APMA solution was prepared from a 10 mmol/l p-aminophenylmercuric acetate solution in 0.1 mmol/l NaOH by dilution with 3 parts by volume of Tris/HCl buffer pH 7.5 (see below). The pH was adjusted to between 7.0 and 7.5 by adding 1 mmol/l HCl. After activation of the enzyme it was diluted with the Tris/HCl buffer to a concentration of 4.2 mU/ml.
(§1) The enzymic activity was measured by incubating 10 μl of enzyme solution with 10 μl of a 3% strength (v/v) buffered dimethyl sulfoxide solution (reaction 1) for 15 minutes. The enzyme inhibitor activity was measured by incubating 10 μl of enzyme solution with 10 μl of a 3% strength (v/v) buffered dimethyl sulfoxide solution which contained the enzyme inhibitor (reaction 2).
The enzymic reaction both in the case of reaction 1 and in the case of reaction 2 was followed after addition of 10 μl of a 3% strength (v/v) aqueous dimethyl sulfoxide solution which contained 0.15 mmol/l of the substrate by fluorescence spectroscopy (328 nm (extinction)/393 nm (emission)).
The enzymic activity has been presented as increase in extinction/minute.
The effect of the inhibitor was calculated as percentage inhibition by the following formula: % inhibition=100−[(increase in extinction/minute in reaction 2)/(increase in extinction/minute in reaction 1)×100].
(§2) The IC50, which is the concentration of inhibitor which is necessary for 50% inhibition of the enzymic activity, was determined graphically by plotting the percentage inhibitions at various inhibitor concentrations.
The buffer solution contained 0.05% Brij (Sigma, Deisenhofen, Germany) and 0.1 mol/l Tris/HCl, 0.1 mol/l NaCl, 0.01 mol/l CaCl2 (pH=7.5). The enzyme solution contained 4.2 mU/ml of the enzyme domain. The substrate solution contained 0.15 mmol/l of the fluorogenic substrate (7-methoxycoumarin-4-yl)acetyl-Pro-Leu-Gly-Leu-3-(2′,4′-dinitrophenyl)-L-2,3-diaminopropionyl-Ala-Arg-NH2 (Bachem, Heidelberg, Germany).

Experiment [2] addresses T2, catalytic domain of human collagenase-3 (MMP-13) (Homo sapiens, UniProt P45452).
T2 construct: Determination of the Enzymatic Activity of the Catalytic Domain of Human Collagenase-3 (MMP-13); purchased INVITEK, Berlin
Nature of the experiment: Enzymatic activity of the catalytic domain of human collagenase-3 (MMP-13), fluorogenic substrate. The protocol:
Determination of the Enzymatic Activity of the Catalytic Domain of Human Collagenase-3 (MMP-13)
Activation of the proenzyme: 2 parts by volume of proenzyme were incubated with 1 part by volume of APMA solution at 37° C. for 1.5 hours. The APMA solution was prepared from a 10 mmol/l p-aminophenylmercuric acetate solution in 0.1 mmol/l NaOH by dilution with 3 parts by volume of Tris/HCl buffer pH 7.5 (see below). The pH was adjusted to between 7.0 and 7.5 by adding 1 mmol/l HCl. After activation of the enzyme it was diluted with the Tris/HCl buffer to a concentration of 1.67 μg/ml.
as §1
The enzymic reaction both in the case of reaction 1 and in the case of reaction 2 was followed after addition of 10 μl of a 3% strength (v/v) aqueous dimethyl sulfoxide solution which contained 0.075 mmol/l of the substrate by fluorescence spectroscopy (328 nm (extinction)/393 nm (emission)).
The enzymic activity has been presented as increase in extinction/minute. The effect of the inhibitor was calculated as percentage inhibition by the following formula: % inhibition=100−[(increase in extinction/minute in reaction 2)/(increase in extinction/minute in reaction 1)×100].
as §2
The buffer solution contained 0.05% Brij (Sigma, Deisenhofen, Germany) and 0.1 mol/l Tris/HCl, 0.1 mol/l NaCl, 0.01 mol/l CaCl2 (pH=7.5). The enzyme solution contained 1.67 μg/ml of the enzyme domain. The substrate solution contained 0.075 mmol/l of the fluorogenic substrate (7-methoxycoumarin-4-yl)acetyl-Pro-Leu-Gly-Leu-3-(2′,4′-dinitrophenyl)-L-2,3-diaminopropionyl-Ala-Arg-NH2 (Bachem, Heidelberg, Germany).

The target in experiment [3] is T3, catalytic domain of human stromelysin (MMP-3) (Homo sapiens, UniProt P08254).
T3 construct: Preparation and Determination of the Enzymatic Activity of the Catalytic Domain of Human Stromelysin (MMP-3); made in house
T3 sequence (P08254 100-272 limits assumed): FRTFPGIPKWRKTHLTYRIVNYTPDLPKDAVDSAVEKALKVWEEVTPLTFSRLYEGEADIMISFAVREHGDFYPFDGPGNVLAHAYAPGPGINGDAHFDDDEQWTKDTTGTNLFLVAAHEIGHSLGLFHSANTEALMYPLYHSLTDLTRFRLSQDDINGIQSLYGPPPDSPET
The experiment can be described thus: Enzymatic activity of the catalytic domain of human stromelysin (MMP-3), fluorogenic substrate. The protocol: (§3) Preparation and Determination of the Enzymatic Activity of the Catalytic Domain of Human Stromelysin (MMP-3) and of Neutrophil Collagenase (MMP-8)
(§4) The two enzymes stromelysin (MMP-3) and neutrophil collagenase (MMP-8) were prepared by the method of Ye et al. (Biochemistry; 31 (1992) pages 11 231-11 235). The enzymic activity or the effect of the enzyme inhibitor was measured by incubating 10 μl of enzyme solution with 10 μl of a 3% strength (v/v) buffered dimethyl sulfoxide solution which contained the enzyme inhibitor where appropriate, for 15 minutes. After addition of 10 μl of a 3% strength (v/v) aqueous dimethyl sulfoxide solution which contained 1 mmol/l of the substrate, the enzymic reaction was followed by fluorescence spectroscopy (328 nm (ex)/393 nm(em)). The enzymic activity is presented as increase in extinction/minute.
(§5) The IC50 values listed in Table 4 were determined as the inhibitor concentrations leading in each case to 50% inhibition of the enzyme. The buffer solution contained 0.05% Brij (Sigma, Deisenhofen, Germany) and 0.1 mol/l Tris/HCl, 0.1 mol/l NaCl, 0.01 mol/l CaCl2 and 0.1 mol/l piperazine-N,N′-bis[2-ethanesulfonic acid] (pH=7.5).
(§6) The MMP-3 enzyme solution contained 2.3 μg/ml and the MMP-8 enzyme solution 0.6 μg/ml of one of the enzyme domains prepared by the method of Ye et al. The substrate solution contained 1 mmol/l of the fluorogenic substrate (7-methoxycoumarin-4-yl)acetyl-Pro-Leu-Gly-Leu-3-(2′,4′-dinitrophenyl)-L-2,3-diaminopropionyl-Ala-Arg-NH2 (Bachem, Heidelberg, Germany).

The target in experiment [4] is T4, neutrophil collagenase (MMP-8) (Homo sapiens, UniProt P22894).
T4 construct: Catalytic Domain of Human Stromelysin (MMP-3) and of Neutrophil Collagenase (MMP-8); made in house
T4 sequence (P22894 100-262 limits assumed): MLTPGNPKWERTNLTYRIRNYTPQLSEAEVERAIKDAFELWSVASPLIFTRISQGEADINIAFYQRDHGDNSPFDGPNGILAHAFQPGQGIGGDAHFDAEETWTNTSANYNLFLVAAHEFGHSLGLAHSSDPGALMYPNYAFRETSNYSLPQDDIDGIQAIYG
Nature of the experiment: Enzymatic activity of the catalytic domain of neutrophil collagenase (MMP-8), fluorogenic substrate. As for the experimental part:
as §3, §4, §5, §6

What is called IC50 is the concentration needed to halve the response being measured.

T1 sequence (P14780 107-707 limits assumed): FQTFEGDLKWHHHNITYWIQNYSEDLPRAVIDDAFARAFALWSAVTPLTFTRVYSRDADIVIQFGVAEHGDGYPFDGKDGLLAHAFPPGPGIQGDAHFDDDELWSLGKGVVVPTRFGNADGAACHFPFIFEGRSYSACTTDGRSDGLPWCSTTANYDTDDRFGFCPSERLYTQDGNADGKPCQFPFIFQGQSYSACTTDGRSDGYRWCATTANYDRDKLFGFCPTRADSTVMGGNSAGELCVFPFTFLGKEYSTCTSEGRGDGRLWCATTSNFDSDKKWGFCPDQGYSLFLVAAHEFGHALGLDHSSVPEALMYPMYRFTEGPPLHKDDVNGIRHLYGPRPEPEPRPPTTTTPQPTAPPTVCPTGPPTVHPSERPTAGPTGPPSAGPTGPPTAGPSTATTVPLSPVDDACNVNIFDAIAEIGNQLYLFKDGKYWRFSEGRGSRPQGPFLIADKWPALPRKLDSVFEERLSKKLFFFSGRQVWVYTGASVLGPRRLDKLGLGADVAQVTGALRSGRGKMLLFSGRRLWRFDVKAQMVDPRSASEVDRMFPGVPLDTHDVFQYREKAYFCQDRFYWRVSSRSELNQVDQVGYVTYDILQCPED

As for “2-{2-[4-(4-fluorophenoxy)phenyl]ethanesulfonyl}-1,2,3,4-tetrahydroisoquinoline-1-hydroxycarboxamide [Compound 20]”, the IC50 in experiment [1] stood at 1.3 nM; in experiment [2], 2.2 nM; in experiment [3] it was 23 nM; in experiment [4], 2.2 nM. Further, in experiment [1], the “MMP9:MMP1, selectivity of inhibition of MMP-9 in relation to MMP-1” value came to 231.
With `O=C(NO)[C@H]1c2ccccc2CCN1S(=O)(=O)c1ccc(Oc2ccc(Cl)cc2)cc1` [Compound 9], the 50% inhibitory concentration (IC50) is 1 nM in experiment [1], 2.1 nM in experiment [2], 23 nM in experiment [3] and 2.2 nM in experiment [4]. In experiment [1], the “MMP9:MMP1, selectivity of inhibition of MMP-9 in relation to MMP-1” value stood at 2.
Regarding `O=C(NO)[C@H]1c2ccccc2CCN1S(=O)(=O)c1ccc(Oc2ccncc2)cc1` [Compound 11], the IC50 was 1.8 nM in experiment [1], 2.3 nM in experiment [2], 25 nM in experiment [3] and 3 nM in experiment [4]. The “MMP9:MMP1, selectivity of inhibition of MMP-9 in relation to MMP-1” value in experiment [1] is 78.
For `COc1cc2c(cc1OC)[C@@H](C(=O)NO)N(S(=O)(=O)c1ccc(-c3ccc(Cl)cc3)cc1)CC2` [Compound 15] the same measures were 1 nM, 2 nM, 20 nM, 2 nM and 300.
For the compound `COc1ccc(F)c2c1[C@H](C(=O)NO)N(S(=O)(=O)c1ccc(-c3ccc(Cl)cc3)cc1)CC2` [Compound 18], the IC50 in experiment [1] was 60 nM; in experiment [2], 7.5 nM; in experiment [3] it was 800 nM; in experiment [4] it was 14 nM. Also, the “MMP9:MMP1, selectivity of inhibition of MMP-9 in relation to MMP-1” value in experiment [1] was determined as 67.
Regarding `O=C(NO)[C@H]1c2ccccc2CCN1S(=O)(=O)c1ccc(Oc2ccc(C(F)(F)F)cc2)cc1` [Compound 21, (R)-2-[4-(4-trifluoromethylphenoxy)benzenesulfonyl]-1,2,3,4-tetrahydro-isoquinoline-1-hydroxycarboxamide], the IC50 in experiment [1] amounted to 3.2 nM; in experiment [2], 2.5 nM; in experiment [3], 33 nM; in experiment [4] it was 3.2 nM. Further, the “MMP9:MMP1, selectivity of inhibition of MMP-9 in relation to MMP-1” value in experiment [1] was determined as 313.
As to `O=C(NO)[C@H]1c2ccccc2CCN1S(=O)(=O)c1ccc(Oc2ccc(OCC(F)(F)F)cc2)cc1` [Compound 22], the IC50 in experiment [1] worked out at 18 nM; in experiment [2], 130 nM; in experiment [3], 520 nM; in experiment [4], 110 nM. In experiment [1], the “MMP9:MMP1, selectivity of inhibition of MMP-9 in relation to MMP-1” value turned out to be 89.
On to `O=C(NO)[C@H]1c2ccccc2CCN1S(=O)(=O)c1ccc(Oc2ccc(OC(F)(F)F)cc2)nc1` [Compound 43, (R)-2-[6-(4-trifluoromethoxyphenoxy)pyridine-3-sulfonyl]-1,2,3,4-tetrahydro-isoquinoline-1-hydroxycarboxamide], for which the IC50 in experiment [1] was 20 nM; in experiment [2] it was 30 nM; in experiment [3] it was 300 nM; in experiment [4] it was 30 nM. Besides, the “MMP9:MMP1, selectivity of inhibition of MMP-9 in relation to MMP-1” value in experiment [1] was >500.
Take `O=C(NO)[C@H]1c2ccccc2CCN1S(=O)(=O)c1ccc(Oc2ccc(Cl)cc2)nc1` [Compound 45, (R)-2-[6-(4-chlorophenoxy)pyridine-3-sulfonyl]-1,2,3,4-tetrahydroisoquinoline-1-hydroxycarboxamide]: the IC50 in experiment [1] is 3 nM; in experiment [2], 8 nM; in experiment [3] it was 45 nM; in experiment [4], 9 nM. Besides, in experiment [1], the “MMP9:MMP1, selectivity of inhibition of MMP-9 in relation to MMP-1” value is 667.
For the compound “(R)-4-(1-hydroxycarbamoyl-3,4-dihydro-1H-isoquinoline-2-sulfonyl)phenyl benzoate [Compound 48]”, the IC50 was found to be 2 nM in experiment [1], 3 nM in experiment [2], 26 nM in experiment [3] and 4 nM in experiment [4].

Values taken from patent US20070203118A1, “SUBSTITUTED TETRAHYDROISOQUINOLINES USED IN THE FORM OF MMP INHIBITORS, METHOD FOR THE PRODUCTION AND USE THEREOF IN THE FORM OF DRUGS” (SANOFI-AVENTIS DEUTSCHLAND GMBH, priority 2004, published 2007).
